From US5081121A, “4(1H)-quinolone derivatives” (priority 1988, dated 1992)

How the values were obtained:
[1] = tested on: heart muscle; test: Test Method 2: effect on heart muscle contracting force in an anesthetized dog (LV-dP/dtmax); type: in vivo; details: anesthetized Beagle dogs, 1 mg/kg through a cannula inserted into vein; increasing rate, value at initiation set as 100%
Method: The compounds according to the present invention was evaluated with reference to the effect on heart muscle contracting force by means of a method using an anesthetized dog.
Beagle dogs having a body weight of 8-11 kg were used for the experiment. They were anesthetized by intraperitoneal administration of a sodium salt of pentobarbital (35 mg/kg) and, if necessary, of additional small amount of the sodium salt of pentobarbital. Anesthesia was maintained by administering the sodium salt of pentobarbital in a dose of 5 mg/kg/hour through a cannula inserted within a vein. Breathing was performed through a cannula inserted within a trachea with a respirator. The maximum accelerations of contracting the […] (LV-dp/dtmax) were measured with a pressure transducer inserted into the left ventricle. Compounds tested was administered in a dose of 1 mg/kg through a cannula inserted into the other vein. The parameters were expressed as the increasing rate (Δ%) after dosing of the drug with the value at the initiation when the drug was administered being set as 100%.

[2] = tested on: left atrial muscle; test: Test Method 1: enhancement of contracting force of left atrial muscle extirpated from a guinea pig (electrically stimulated at 1 Hz); type: cell-based; details: Cavia porcellus, Krebs-Henseleit solution 32° C.; for EC20: read-out: EC20 (molar concentration for enhancing the left atrial muscle contracting force to the level of 20%); for EC50: read-out: EC50 (molar concentration for enhancing the left atrial muscle contracting force to the level of 50%); for EC100: read-out: EC100 (molar concentration for enhancing the left atrial muscle contracting force to the level of 100%)
Method: (§1) The drug according to the present invention was evaluated with reference to the physiological activities by means of a method using an atrial muscle extirpated from a guinea pig.
(§2) Male guinea pigs having a body weight of 300-500 g were made swooned by striking his head and were bleeded to death. The heart was extirpated and the right and left atrial muscles were cut off. The tops of each atrial muscle were fixed with cerrefines. The muscle was suspended into an organ-bath in which a Krebs-Henseleit solution (at 32° C.) was filled, and a 95% O2 -5% CO2 gas was flown through the bath. The left atrial muscle was stimulated electrically at a frequency of 1 Hz to stabilize the contracting force of the left atrial muscle. Then, the compounds according to the present invention represented by the general formulae were added to the organ-bath. As for the right atrial muscle, after the pulsation was stabilized, the compounds according to the present invention were added in the organ-bath in the same manner as described above.
(§3) The compounds according to the present invention represented by the aforementioned general formulae enhanced the left atrial muscle contracting force dependent on their concentrations. The drug concentrations for enhancing the left atrial muscle contracting force to the levels of 20%, 50% and 100%, respectively are listed in Table 2. EC20, EC50 and EC100 indicate the molar concentration for enhancing the left atrial muscle contracting force to the levels of 20%, 50% and 100%, respectively. The enhancing rates of the pulsation of the right atrial muscle are also listed within parentheses. The minus values in parentheses indicate that the pulsation of the right atrial muscle is decreased.
(§4) As a control drug, theophylline ([…].

[3] = tested on: right atrial muscle; test: Test Method 1: enhancing rate of the pulsation of the right atrial muscle extirpated from a guinea pig; type: cell-based; details: for enhancing rate of the pulsation of the right atrial muscle (in parentheses under EC20) / enhancing rate of the pulsation of the right atrial muscle (in parentheses under EC100) / enhancing rate of the pulsation of the right atrial muscle (in parentheses under EC50): minus values: pulsation is decreased
Method: as §1, §2, §3, §4

| SMILES | ΔLV-dP/dtmax (%) [1] [%] | EC20 [2] [µM] | EC50 [2] [µM] | EC100 [2] [µM] | enhancing rate of the pulsation of the right atrial muscle (in parentheses under EC20) [3] [%] | enhancing rate of the pulsation of the right atrial muscle (in parentheses under EC100) [3] [%] | enhancing rate of the pulsation of the right atrial muscle (in parentheses under EC50) [3] [%] | effect on heart rate (in words) ([3]; from the results of Table 2) |
| --- | --- | --- | --- | --- | --- | --- | --- | --- |
| CCOc1cc2[nH]ccc(=O)c2cc1OC [Compound 62, 7-ethoxy-6-methoxy-4(1H)-quinolone] | 60.0 | 4.52 | 30 | 75 | – | – | – | – |
| COc1cc2c(=O)cc[nH]c2cc1OC(C)C [Compound 51, 7-i-propoxy-6-methoxy-4(1H)-quinolone] | 41.2 | 20 | 70.8 | 1000 | 6.2 | 16.5 | 16.8 | – |
| COc1cc(C)c2[nH]ccc(=O)c2c1 [Compound 20, 6-methoxy-8-methyl-4(1H)-quinolone] | 41.7 | 12.4 | 58.9 | 299 | 0.2 | 5.6 | 1.8 | – |
| COc1cc2[nH]c(C3CC3)cc(=O)c2cc1OC [Compound 95, 2-cyclopropyl-6,7-dimethoxy-4(1H)-quinolone] | 46.9 | 1.78 | 18.2 | 94.4 | 2.8 | – | 16.3 | – |
| COc1ccc(Cn2c(C3CC3)cc(=O)c3cc(OC)c(OC)cc32)cc1 [Compound 104, 2-cyclopropyl-6,7-dimethoxy-1-(4-methoxybenzyl)-4(1H)-quinolone] | – | 11.5 | 51.9 | – | -3.5 | – | -0.5 | – |
| COc1ccc(-c2ccccc2)c2c(=O)c(C(=O)O)c[nH]c12 [Compound 91, 3-carboxyl-8-methoxy-5-phenyl-4(1H)-quinolone] | – | 13.3 | 119 | 750 | 2.3 | – | 16.0 | – |
| CCOC(=O)c1c[nH]c2c(OCOC)ccc(OC)c2c1=O [Compound 5, 3-ethoxycarbonyl-5-methoxy-8-methoxymethoxy-4(1H)-quinolone] | – | 741 | – | – | 0.2 | – | – | – |
| COc1cc(OCc2ccccc2)cc2c(=O)cc[nH]c12 [Compound 26, 6-benzyloxy-8-methoxy-4(1H)-quinolone] | – | 6.38 | 63 | 305 | 0.1 | 8.7 | 5.5 | – |
| CCOc1cc2[nH]c(C3CC3)cc(=O)c2cc1OC [Compound 98, 2-cyclopropyl-7-ethoxy-6-methoxy-4(1H)-quinolone] | 57.1 | 5.96 | 36.7 | – | – | – | – | – |
| CCOc1cc2c(cc1OC)c(=O)cc(-c1cccnc1)n2CC [Compound 114, 7-ethoxy-1-ethyl-6-methoxy-2-(3-pyridyl)-4(1H)-quinolone] | – | 6.46 | 53.1 | 1000 | -1.8 | -1.3 | -4.0 | – |
| CCOC(=O)c1c[nH]c2c(C)cc(N(CC)CC)cc2c1=O [Compound 84, 6-diethylamino-3-ethoxycarbonyl-8-methyl-4(1H)-quinolone] | – | 35.9 | 57.5 | 126 | -3.0 | -11.5 | -6.5 | – |
| CCOC(=O)c1cn(CC)c2ccc(C)cc2c1=O [Compound 33, 3-ethoxycarbonyl-1-ethyl-6-methyl-4(1H)-quinolone] | – | 30 | 76.7 | 513 | 1.5 | -7.1 | 1.7 | – |
| CCOc1cc2c(cc1OC)c(=O)c(C(=O)O)cn2C [Compound 92, 3-carboxyl-7-ethoxy-6-methoxy-1-methyl-4(1H)-quinolone] | – | 4.73 | 37.6 | – | 1.0 | – | 6.0 | – |
| Cn1c(=O)c2[nH]cnc2n(C)c1=O [Theophylline, theophylline, reference compound] | 18.8 | 72.4 | 302 | – | 7.3 | – | 20.0 | increased significantly |
| CCOC(=O)c1cn(CC)c2ccc(CC)cc2c1=O [Compound 85, 1,6-diethyl-3-ethoxycarbonyl-4(1H)-quinolone] | 25.0 | 1.58 | 9.77 | – | -1.2 | – | -0.8 | – |
| C=CCn1c(-c2cccs2)cc(=O)c2cc(OC)c(OCC)cc21 [Compound 116, 1-allyl-7-ethoxy-6-methoxy-2-(2-thienyl)-4(1H)-quinolone] | – | 15.3 | 60.3 | – | -10.0 | – | – | – |
| CCCCOc1cc2[nH]ccc(=O)c2cc1OC [Compound 52, 7-n-butoxy-6-methoxy-4(1H)-quinolone] | – | 37.6 | 115 | 422 | -1.0 | -20.0 | -1.2 | – |
| CCOC(=O)c1c[nH]c2c(OC)ccc(C)c2c1=O [Compound 36, 3-ethoxycarbonyl-8-methoxy-5-methyl-4(1H)-quinolone] | – | 3.54 | 25.7 | 77.6 | 0.0 | 8.9 | 3.6 | – |
| CCN(CC)c1cc(C)c2[nH]ccc(=O)c2c1 [Compound 9, 6-diethylamino-8-methyl-4(1H)-quinolone] | – | 40.7 | 87.1 | 299 | 8.2 | 18.0 | 15.3 | – |
| O=c1cc(-c2cccs2)[nH]c2ccccc12 [Compound 100, 2-(2-thienyl)-4(1H)-quinolone] | – | 5.43 | 18.8 | – | 1.8 | – | 3.5 | – |
| CCn1ccc(=O)c2cc(C)ccc21 [Compound 59, 1-ethyl-6-methyl-4(1H)-quinolone] | – | 12.3 | 68.4 | 279 | -2.0 | -3.0 | -2.7 | – |
| O=C(c1ccccc1)c1cc(Cl)cc2c(=O)cc[nH]c12 [Compound 18, 8-benzoyl-6-chloro-4(1H)-quinolone] | – | 10 | 39.3 | 115 | 0.2 | 12.2 | 9.2 | – |
